Measurements as given in ChEMBL document CHEMBL1129011, “Novel 4,4-bis(trifluoromethyl) imidazolines as stereospecific and orally active acyl coa: Cholesterol acyltransferase (ACAT) inhibitors and antihypercholesterolemic agents” (Bioorg Med Chem Lett, 1996).

Legend:
[1] = species on record: Oryctolagus cuniculus; assay: Antihypercholesterolemic value for the compound was determined; type: functional
[2] = Compound was evaluated for the inhibition of J774 macrophage cell culture Acyl coenzyme A:cholesterol acyltransferase; type: cell-based
[3] = tested on: Oryctolagus cuniculus; assay: Percent reduction in serum cholesterol was determined by the oral administration in methylcellulose vehicle at a dose of 5 mg/kg/day for 4 day; type: functional
[4] = tested on: Oryctolagus cuniculus; assay: Percent reduction in serum cholesterol was determined by the oral administration in methylcellulose vehicle at a dose of 2.5 mg/kg/day for 7 days; type: functional
[5] = species on record: Oryctolagus cuniculus; assay: Antihypercholesterolemic value for the compound was determined in rabbits; type: functional

Compound	AHV [1]	IC50 [2]	Reduction [3]	Reduction [4]	AHV [5]
CN(C(=O)c1ccc(C#N)cc1)[C@@H]1N(C)C(c2ccc(C#N)cc2)=NC1(C(F)(F)F)C(F)(F)F	15%	54 µM	12%		
CN(C(=O)c1ccc(C#N)cc1)C1N(C)C(c2ccc(C#N)cc2)=NC1(C(F)(F)F)C(F)(F)F (centres undefined)		16 µM		79%	>90%
CN(C(=O)c1ccc(C#N)cc1)[C@H]1N(C)C(c2ccc(C#N)cc2)=NC1(C(F)(F)F)C(F)(F)F	90%	11 µM	75%		
